Source: US20220259593A1, “CONTROL OF MAMMALIAN GENE DOSAGE USING CRISPR” (The Regents of the University of California, priority 2019, published 2022)

How the values were obtained:
[1] = tested on: K562 CRISPRi cells; test: Perturb-seq pooled growth measurement (sgRNA counts, growth phenotype γ, relative activity); format: cell-based, human; conditions: for gamma_day5 / gamma_day10: pooled growth phenotype γ of the Perturb-seq sgRNA; for gamma_day5: day 5, K562 CRISPRi cells; for gamma_day10: day 10, K562 CRISPRi cells; for relative_activity_day5: γ relative to perfectly matched sgRNA (_00) of the same gene, day 5
How it was run: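 sgRNA abundance was sequenced from genomic DNA of the same transduced population sampled on days two, seven and twelve. Phenotype γ compares normalized day seven and twelve counts with day two. Day-seven values (five days of growth) define relative sgRNA activity.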

[2] = tested on: K562 CRISPRi cells; test: as above; format: cell-based, human; conditions: γ relative to perfectly matched sgRNA (_00) of the same gene, day 10

Row | Substance | gamma_day5 [1] | gamma_day10 [1] | relative_activity_day5 [1] | relative_activity_day10 [2]
1 | RAN_ + _131356438.23-P1P2_04 (guide GGCGGTCGCGGCGCTTAGGG; listed as DNA, chemistry not fully specified) | −0.0859 | −0.08721 | 0.4352 | 0.5401
2 | RAN_ + _131356438.23-P1P2_12 (guide GGCGGTCGCTGCGCTTAGGT; listed as DNA, chemistry not fully specified) | −0.04655 | −0.03426 | 0.2358 | 0.2122
3 | RPL9_ + _39460483.23-P1P2_00 (guide GGATGTTTCTGTGCTCGTGG; listed as DNA, chemistry not fully specified) | −1.113 | −0.6699 | 1 | 1
4 | RPL9_ + _39460483.23-P1P2_01 (guide GGATGATTCTGTGCTCGTGG; listed as DNA, chemistry not fully specified) | −0.8528 | −0.4984 | 0.7661 | 0.7441
5 | RPL9_ + _39460483.23-P1P2_04 (guide GGATGTTTCAGTGCTCGTGG; listed as DNA, chemistry not fully specified) | −0.4171 | −0.2942 | 0.3747 | 0.4392
6 | RPL9_ + _39460483.23-P1P2_05 (guide GGATGTTTCGGTGCTCGTGG; listed as DNA, chemistry not fully specified) | −0.6073 | −0.3848 | 0.5456 | 0.5745
7 | RPL9_ + _39460483.23-P1P2_07 (guide GGATGTTTCTGCGCTCGTGG; listed as DNA, chemistry not fully specified) | −0.2924 | −0.2073 | 0.2627 | 0.3095
8 | RPS14_ + _149829238.23-P1P2_00 (guide GAGGCCCGGGCGCGACAATC; listed as DNA, chemistry not fully specified) | −0.7908 | −0.4995 | 1 | 1
9 | RPS14_ + _149829238.23-P1P2_01 (guide GAGACCCGGGCGCGACAATC; listed as DNA, chemistry not fully specified) | −0.7548 | −0.4807 | 0.9545 | 0.9624
10 | RPS14_ + _149829238.23-P1P2_02 (guide GAGGCCCTGGCGCGACAATC; listed as DNA, chemistry not fully specified) | −0.5845 | −0.3829 | 0.739 | 0.7666
11 | RPS14_ + _149829238.23-P1P2_04 (guide GAGGCCCGCGCGCGACAATC; listed as DNA, chemistry not fully specified) | −0.3025 | −0.1958 | 0.3825 | 0.3919
12 | RPS14_ + _149829238.23-P1P2_08 (guide GAGGCCCGGGCTCGACAATC; listed as DNA, chemistry not fully specified) | 0.02738 | −0.0006109 | −0.03462 | 0.001223
13 | RPS14_ + _149829238.23-P1P2_13 (guide GAGGCCCGGGCGCGACAGTC; listed as DNA, chemistry not fully specified) | −0.2119 | −0.1559 | 0.268 | 0.3122
14 | RPS15_ −_1438413.23-P1P2_00 (guide GACCAAAGCGATCTCTTCTG; listed as DNA, chemistry not fully specified) | −0.6212 | −0.376 | 1 | 1
15 | RPS15_ −_1438413.23-P1P2_01 (guide GACCAAACCGATCTCTTCTG; listed as DNA, chemistry not fully specified) | 0.006616 | 0.001422 | −0.01064 | −0.003782
16 | RPS15_ −_1438413.23-P1P2_02 (guide GACCAAGGCGATCTCTTCTG; listed as DNA, chemistry not fully specified) | −0.4922 | −0.3145 | 0.7923 | 0.8366
17 | RPS15_ −_1438413.23-P1P2_07 (guide GACCAAAGCGGTCTCTTCTG; listed as DNA, chemistry not fully specified) | −0.5221 | −0.3074 | 0.8404 | 0.8176

Row | Substance | gamma_day5 [1] | gamma_day10 [1] | relative_activity_day5 [1] | relative_activity_day10 [2]
18 | RPS15_ −_1438413.23-P1P2_12 (guide GACCAAAGCGATCTCTTGTG; listed as DNA, chemistry not fully specified) | 0.0311 | 0.01173 | 0.05005 | 0.03119
19 | RPS18_ + _33239917.23-P1P2_00 (guide GCTGCGATGCCGCTGGATCA; listed as DNA, chemistry not fully specified) | −0.8169 | −0.503 | 1 | 1
20 | RPS18_ + _33239917.23-P1P2_01 (guide GCTGCAATGCCGCTGGATCA; listed as DNA, chemistry not fully specified) | −0.5598 | −0.3779 | 0.6853 | 0.7514
21 | RPS18_ + _33239917.23-P1P2_02 (guide GCTGGGATGCCGCTGGATCA; listed as DNA, chemistry not fully specified) | −0.4898 | −0.3191 | 0.5995 | 0.6345
22 | RPS18_ + _33239917.23-P1P2_04 (guide GCTGCGATCCCGCTGGATCA; listed as DNA, chemistry not fully specified) | −0.08697 | −0.08068 | 0.1065 | 0.1604
23 | RPS18_ + _33239917.23-P1P2_08 (guide GCTGCGATTCCGCTGGATCA; listed as DNA, chemistry not fully specified) | −0.2228 | −0.1637 | 0.2727 | 0.3255
24 | SEC61A1_ −_127771295.23-P1_00 (guide GGCACTGACGTGTCTCTCGG; listed as DNA, chemistry not fully specified) | −0.92 | −0.5629 | 1 | 1
25 | SEC61A1_ −_127771295.23-P1_01 (guide GGCACTGTCGTGTCTCTCGG; listed as DNA, chemistry not fully specified) | −0.4191 | −0.2918 | 0.4556 | 0.5184
26 | SEC61A1_ −_127771295.23-P1_02 (guide GGCGCTGACGTGTCTCTCGG; listed as DNA, chemistry not fully specified) | −0.6451 | −0.4055 | 0.7012 | 0.7203
27 | SEC61A1_ −_127771295.23-P1_03 (guide GGTACTGACGTGTCTCTCGG; listed as DNA, chemistry not fully specified) | −0.5031 | −0.3419 | 0.5469 | 0.6074
28 | SEC61A1_ −_127771295.23-P1_04 (guide GGCACTGAAGTGTCTCTCGG; listed as DNA, chemistry not fully specified) | −0.1539 | −0.1153 | 0.1673 | 0.2049
29 | TUBB_ + _30688126.23-P1_00 (guide GCGGCAGGAAGGTTCTGAGA; listed as DNA, chemistry not fully specified) | −0.897 | −0.6999 | 1 | 1
30 | TUBB_ + _30688126.23-P1_01 (guide GCAGCAGGAAGGTTCTGAGA; listed as DNA, chemistry not fully specified) | −0.926 | −0.6119 | 1.032 | 0.8743
31 | TUBB_ + _30688126.23-P1_03 (guide GCGGCAGCAAGGTTCTGAGA; listed as DNA, chemistry not fully specified) | −0.6926 | −0.4959 | 0.7721 | 0.7085
32 | TUBB_ + _30688126.23-P1_06 (guide GCGGCAGGACGGTTCTGAGA; listed as DNA, chemistry not fully specified) | −0.7308 | −0.5544 | 0.8147 | 0.7922
33 | TUBB_ + _30688126.23-P1_10 (guide GCGGCAGGAAGGTTCAGAGA; listed as DNA, chemistry not fully specified) | −0.1978 | −0.1451 | 0.2205 | 0.2073
